This is an account of results in patent publication EP0823908B1, “PYRIDO[2,3-d]PYRIMIDINES FOR INHIBITING PROTEIN TYROSINE KINASE MEDIATED [sequence] PROLIFERATION” (Warner-Lambert Company LLC, priority 1995, dated 1996).

Molecules are shown by their SMILES. Where two headings read alike, the source gives them in different places.

Test [1] deals with PDGF receptor. As to the kind of experiment: PDGF receptor autophosphorylation in rat aorta smooth muscle cells. The class given is cell-based. As to conditions: PDGF-BB 30 ng/mL for 5 minutes after 2 hours with compound; read-out: Inhibition of PDGF-Stimulated Receptor Auto Phosphorylation in Rat Aortic Smooth Muscle Cells (IC50). The procedure: Rat aorta smooth muscle cells (RASMC) were isolated from the thoracic aorta of rats and explanted according to the method of Ross, J. Cell. Biol., 30:172-186 (1971). Cells were grown in Dulbecco's modified Eagle's medium (DMEM, Gibco) containing 10% fetal calf serum (FBS, Hyclone, Logan, Utah), 1% glutamine (Gibco) and 1% penicillin/streptomycin (Gibco). Cells were identified as smooth muscle cells by their "hill and valley" growth pattern and by fluorescent staining with a monoclonal antibody specific for SMC ∝-actin (Sigma). RASMC were used between passages 5 and 20 for all experiments. Test compounds were prepared in dimethylsulfoxide (DMSO) in order to achieve consistency in the vehicle and to ensure compound solubility. Appropriate DMSO controls were simultaneously evaluated with the test compounds.
RASMC were grown to confluency in 100 mm dishes. Growth medium was removed and replaced with serum-free medium and cells were incubated at 37°C for an additional 24 hours. Test compounds were then added directly to the medium and cells incubated for an additional 2 hours. After 2 hours, PDGF-BB was added at a final concentration of 30 ng/mL for 5 minutes at 37°C to stimulated autophosphorylation of the PDGF receptor. Following growth factor treatment, the medium was removed, and cells were washed with cold phosphate-buffered saline and immediately lysed with 1 mL of lysis buffer (50 mM HEPES[pH 7.5], 150 mM NaCl, 10% glycerol, 1% Triton X-100, 1 mM EDTA, 1 mMEGTA, 50 mM NaF, 1 mM sodium orthovanadate, 30 mM p-nitrophenyl phosphate, 10 mM sodium pyrophosphate, 1 mM phenylmethyl sulfonyl fluoride, 10 µg/mL aprotinin, and 10 µg/mL leupeptin). Lysates were centrifuged at 10,000 × g for 10 minutes. […] Following the incubation, protein-A-sepharose beads were added for 2 hours with continuous mixing, and immune complexes bound to the beads washed four times with 1 mL lysis wash buffer. Immune complexes were solubilized in 30 µL of Laemmli sample buffer and electrophoresed in 4-20% SDS polyacrylamide gels. Following electrophoresis, separated proteins were transferred to nitrocellulose and immunoblotted with anti-phosphotyrosine antiserum. […] IC50 values were generated from the densitometric data.

For test [2], the target named is T1, Human EGF receptor tyrosine kinase (Homo sapiens, UniProt P00533).
T1 construct: Human EGF receptor tyrosine kinase was isolated from A431 epidermoid carcinoma cells; endogenous in cells; host or cells: A431 epidermoid carcinoma cells
As to the kind of experiment: EGF receptor tyrosine kinase enzyme assay (substrate peptide phosphorylation). The class given is biochemical. The following applies: for IC50: read-out: EGF-FL IC50; for inhibition at 50 µM: read-out: EGF-FL % Inhibition at 50 µM.

For test [3], the target named is T2, human FGF-1 (flg) receptor tyrosine kinase (Homo sapiens, UniProt P11362).
T2 construct: amplify a fragment of DNA that codes for the intracellular tyrosine kinase domain; made in house; host or cells: SF9 insect cells (baculovirus)
As to the kind of experiment: FGF receptor tyrosine kinase assay (32P incorporation into glutamate-tyrosine co-polymer). It counts as biochemical. In a few lines:
(§1)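 32P transfer from γ32P-ATP (50 µM ATP) to poly(Glu,Tyr) 4:1 was measured over 10 min at 25°C and counted after TCA precipitation onto filters, minus the no-enzyme background. Enzyme was baculovirus/SF9 lysate of the kinase domain, preincubated 10 min with inhibitor in Hepes pH 7.0, MnCl2, vanadate.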

For test [4], the target named is T3, mouse PDGF-β receptor tyrosine kinase (Mus musculus, UniProt P05622).
T3 construct: amplify a fragment of DNA that codes for the intracellular tyrosine kinase domain; made in house; host or cells: SF9 insect cells (baculovirus)
The test is described as follows: PDGF receptor tyrosine kinase assay (32P incorporation into glutamate-tyrosine co-polymer). The class given is biochemical. As to conditions: for IC50: read-out: PDGFr-TK IC50. The procedure, abridged:
as §1

The target in test [5] is T4, C-src kinase (Homo sapiens, UniProt P12931).
T4 construct: made in house; host or cells: baculovirus infected insect cells
The test is described as follows: C-src kinase assay (poly GluTyr substrate). It counts as biochemical. As to conditions: read-out: C-src TK IC50.

For test [6], the system named is HCT-8. The test is described as follows: Soft agar colony formation, human colon adenocarcinoma cells. The class given is cell-based. As to conditions: HCT-8, 336 h, read-out: Inhibition of Human Colon Adenocarcinoma IC50, HCT-8. Here is the method: (§2) Three such human cell lines were identified as HCT-8, SW-620, and HT-29. In a typical assay, the cells are suspended in 0.3% soft agar containing an invention compound at various concentration levels, and are plated into six-well plates, each plate containing a 1% agar plug. The cell plates are incubated at 37°C in a humidified carbon dioxide (5%) incubator, generally for 2 weeks. At the end of the incubation period, colonies of cells are detected by staining the wells with 1 mg/mL of p-iodonitrotetrazolium violet. The cells are counted on an optical colony counter. […] TABLE III. Inhibition of Human Colon Adenocarcinoma IC50 (µM)

Test [7] relates to HT-29. The description is as above. The class given is cell-based. As to conditions: HT-29, 336 h, colony formation in 0.3% soft agar, generally 2 weeks, read-out: Inhibition of Human Colon Adenocarcinoma IC50, HT-29. The procedure:
as §2

Test [8] concerns SW-620. Described as above. It counts as cell-based. The following applies: SW-620, 336 h, colony formation in 0.3% soft agar, generally 2 weeks, read-out: Inhibition of Human Colon Adenocarcinoma IC50, SW-620. The procedure: as §2
Test [9] deals with transplanted tumors. The test is described as follows: Transplanted tumor assay. It counts as in vivo. The following applies: F1 hybrid mice; compound generally by infusion by tail tether. The procedure: F1 hybrid mice were used in the assay. The mice receive ascites fluid or dilutions of tumor brei on Day 0. A sample of the inocula is incubated in thioglycolate media as a check for gross contamination of the tumor material. After all test animals are inoculated with tumors, they are randomized for the assay. Control animals receive vehicle, while treated animals receive an invention compound dissolved in the vehicle, generally by infusion by tail tether. All animals are monitored daily for acute toxicity and other clinical signs. Survival is checked daily for the control group and treated group. The assay generally is continued for 60 days, at which time all surviving animals are euthanized.

Where [10] appears, read: colony formation in 0.3% soft agar, generally 2 weeks.

T4 sequence (P12931 whole entry): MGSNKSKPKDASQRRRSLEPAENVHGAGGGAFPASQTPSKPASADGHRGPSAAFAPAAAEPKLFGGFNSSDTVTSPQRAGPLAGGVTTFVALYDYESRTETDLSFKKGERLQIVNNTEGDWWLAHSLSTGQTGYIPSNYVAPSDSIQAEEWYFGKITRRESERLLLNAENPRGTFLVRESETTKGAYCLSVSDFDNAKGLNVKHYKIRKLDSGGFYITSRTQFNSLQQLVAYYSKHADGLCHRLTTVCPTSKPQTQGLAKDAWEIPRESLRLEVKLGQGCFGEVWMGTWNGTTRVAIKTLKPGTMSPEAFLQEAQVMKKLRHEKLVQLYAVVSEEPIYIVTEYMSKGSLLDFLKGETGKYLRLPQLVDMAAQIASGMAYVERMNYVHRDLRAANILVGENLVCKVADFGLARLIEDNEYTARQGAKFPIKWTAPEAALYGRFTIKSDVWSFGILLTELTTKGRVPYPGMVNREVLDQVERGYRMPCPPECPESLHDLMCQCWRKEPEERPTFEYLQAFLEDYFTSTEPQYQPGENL
T1 sequence (P00533 25-1210): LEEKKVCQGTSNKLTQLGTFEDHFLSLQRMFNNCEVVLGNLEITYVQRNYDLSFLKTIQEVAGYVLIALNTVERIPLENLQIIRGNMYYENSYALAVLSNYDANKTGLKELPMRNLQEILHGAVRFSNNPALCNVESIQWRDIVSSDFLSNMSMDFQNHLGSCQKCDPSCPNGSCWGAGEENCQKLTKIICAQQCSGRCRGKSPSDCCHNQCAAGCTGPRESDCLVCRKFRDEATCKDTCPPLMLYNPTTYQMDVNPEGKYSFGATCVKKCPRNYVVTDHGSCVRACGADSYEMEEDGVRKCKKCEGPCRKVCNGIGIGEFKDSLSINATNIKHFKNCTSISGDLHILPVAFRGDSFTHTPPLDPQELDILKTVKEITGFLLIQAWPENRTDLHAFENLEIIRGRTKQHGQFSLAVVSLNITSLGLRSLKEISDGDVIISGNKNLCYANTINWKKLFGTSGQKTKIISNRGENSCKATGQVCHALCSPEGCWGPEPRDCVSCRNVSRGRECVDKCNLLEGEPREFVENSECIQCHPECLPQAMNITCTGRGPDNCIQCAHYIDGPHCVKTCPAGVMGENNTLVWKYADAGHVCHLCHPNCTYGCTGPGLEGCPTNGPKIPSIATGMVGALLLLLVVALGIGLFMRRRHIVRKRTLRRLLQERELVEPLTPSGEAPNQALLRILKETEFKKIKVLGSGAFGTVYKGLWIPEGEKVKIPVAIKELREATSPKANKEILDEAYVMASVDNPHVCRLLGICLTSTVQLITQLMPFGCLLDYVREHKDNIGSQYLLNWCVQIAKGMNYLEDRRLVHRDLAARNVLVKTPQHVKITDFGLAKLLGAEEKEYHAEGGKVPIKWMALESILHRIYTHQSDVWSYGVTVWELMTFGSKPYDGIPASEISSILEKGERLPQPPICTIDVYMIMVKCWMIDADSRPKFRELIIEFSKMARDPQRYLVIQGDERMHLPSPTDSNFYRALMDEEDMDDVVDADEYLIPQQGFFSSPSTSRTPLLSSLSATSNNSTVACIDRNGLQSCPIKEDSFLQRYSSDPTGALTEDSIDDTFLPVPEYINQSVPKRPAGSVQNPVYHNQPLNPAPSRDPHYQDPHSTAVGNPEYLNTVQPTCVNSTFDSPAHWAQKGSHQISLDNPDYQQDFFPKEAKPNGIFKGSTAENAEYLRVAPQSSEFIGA
T2 sequence (P11362 478-767 limits assumed): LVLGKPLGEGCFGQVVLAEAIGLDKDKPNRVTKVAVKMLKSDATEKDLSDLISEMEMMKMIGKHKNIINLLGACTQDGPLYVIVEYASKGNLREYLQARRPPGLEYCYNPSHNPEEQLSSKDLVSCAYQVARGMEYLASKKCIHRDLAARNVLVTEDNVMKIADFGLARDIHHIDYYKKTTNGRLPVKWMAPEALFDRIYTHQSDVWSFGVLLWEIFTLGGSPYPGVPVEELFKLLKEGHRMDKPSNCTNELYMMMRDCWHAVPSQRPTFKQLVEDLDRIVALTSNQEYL
T3 sequence (P05622 599-961 limits assumed): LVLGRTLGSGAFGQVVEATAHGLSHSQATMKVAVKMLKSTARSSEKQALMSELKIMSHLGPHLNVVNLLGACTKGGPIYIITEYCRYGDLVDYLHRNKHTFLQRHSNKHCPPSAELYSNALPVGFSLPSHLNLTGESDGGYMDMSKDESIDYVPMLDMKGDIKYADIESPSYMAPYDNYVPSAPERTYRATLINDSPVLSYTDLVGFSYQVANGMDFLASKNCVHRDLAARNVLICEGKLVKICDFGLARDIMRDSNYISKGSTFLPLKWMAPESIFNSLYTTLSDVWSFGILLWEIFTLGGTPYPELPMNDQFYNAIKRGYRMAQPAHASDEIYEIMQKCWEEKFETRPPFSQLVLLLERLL

Regarding `Cn1c(=O)c(-c2c(Cl)cccc2Cl)cc2cnc(N)nc21` [Example 12, 2-Amino-6-(2,6-dichlorophenyl)-8-methyl-pyrido[2,3-d]-pyrimidin-7(8H)-one], the IC50 (commonly the midpoint of a concentration-inhibition curve) in test [1] amounted to 9400 nM; in test [2] it was 5600 nM.
As to `CN1CCN(CCCNc2ncc3cc(-c4c(Cl)cccc4Cl)c(=O)n(C)c3n2)CC1` [Example 38, 6-(2,6-Dichlorophenyl)-8-methyl-2-[3-(4-methylpiperazin-1-yl)-propylamino]-8H-pyrido[2,3-d]pyrimidin-7-one], the IC50 in test [3] turned out to be 230 nM; in [4] it was 1090 nM; in test [2], 8700 nM; in test [5] it was 3 nM; in [6], 3150 nM.
For the molecule `Cn1c(=O)c(-c2c(Cl)cccc2Cl)cc2cnc(Nc3cccc(Br)c3)nc21` [Example 55, 2-(3-Bromophenylamino)-6-(2,6-dichlorophenyl)-8-methyl-8H-pyrido[2,3-d]pyrimidin-7-one], the half-maximal inhibitory concentration (IC50) in test [3] (read-out: FGFr-TK IC50) is 2200 nM; in test [4], 1800 nM; in [1], 60 nM; in test [5], 59 nM; in test [6] (setting [10]), 110 nM; in test [7] it was 430 nM. Further, the IC50 in test [8] stood at 120 nM.
For `Cn1c(=O)c(-c2c(Cl)cccc2Cl)cc2cnc(Nc3ccc(Cl)cc3)nc21` [Example 56, 2-(4-Chlorophenylamino)-6-(2,6-dichlorophenyl)-8-methyl-8H-pyrido[2,3-d]pyrimidin-7-one], the IC50 is 3010 nM in test [3] (read-out: FGFr-TK IC50), 1680 nM in test [4], 70 nM in [5] and 1100 nM in test [8].
For the molecule `Cn1c(=O)c(-c2c(Cl)cccc2Cl)cc2cnc(Nc3ccc4c(c3)OCO4)nc21` [Example 57, 2-(Benzo[1,3]dioxol-5-ylamino)-6-(2,6-dichlorophenyl)-8-methyl-8H-pyrido[2,3-d]pyrimidin-7-one], the IC50 in test [3] (read-out: FGFr-TK IC50) stood at 646 nM; in test [4], 440 nM; in test [2], 89 nM; in [5], 50 nM; in test [6] (setting [10]), 250 nM; in [7] it was 740 nM. Further, the IC50 in test [8] is 520 nM.
Regarding `Cn1c(=O)c(-c2c(Cl)cccc2Cl)cc2cnc(Nc3ccncc3)nc21` [Example 58, 6-(2,6-Dichlorophenyl)-8-methyl-2-(pyridin-4-ylamino)-8H-pyrido[2,3-d]pyrimidin-7-one], the IC50 in test [3] (read-out: FGFr-TK IC50) was determined as 159 nM; in [4], 71 nM; in [1], 13 nM; in test [2], 119 nM; in test [5], 23 nM; in [6] (setting [10]), 170 nM. The concentration for half-maximal inhibition (IC50) in test [7] came out at 380 nM; in test [8], 130 nM.
With `Cc1ccc(Nc2ncc3cc(-c4c(Cl)cccc4Cl)c(=O)n(C)c3n2)cc1` [Example 63, 6-(2,6-Dichlorophenyl)-8-methyl-2-p-tolylamino-8H-pyrido[2,3-d]pyrimidin-7-one], the IC50 came to 1050 nM in test [3] (read-out: FGFr-TK IC50), 1010 nM in test [4], 140 nM in test [2] and 1000 nM in test [6] (setting [10]).
Regarding `CCn1c(=O)c(-c2c(Cl)cccc2Cl)cc2cnc(Nc3ccccc3)nc21` [Example 69, 6-(2,6-Dichloropherlyl)-8-ethyl-2-pherlylamino-8H-pyrido[2,3-d]pyrimidin-7-one], the IC50 in test [3] (read-out: FGFr-TK IC50) came out at 214 nM; in test [4], 593 nM; in test [2], 120 nM; in [5], 79 nM; in test [7], 1110 nM.
Turning to `CCn1c(=O)c(-c2c(Cl)cccc2Cl)cc2cnc(NCCCN3CCN(C)CC3)nc21` [Example 70, 6-(2,6-Dichlorophenyl)-8-ethyl-2-[3-(4-methyl-piperazin-1-yl)-propylamino]-8H-pyrido[2,3-d]pyrimidin-7-one], the IC50 worked out at 109 nM in test [3] (read-out: FGFr-TK IC50), 475 nM in [4], 70 nM in test [5] and 3500 nM in [7].
With `CCN(CC)CCOc1ccc(Nc2ncc3cc(-c4c(Cl)cccc4Cl)c(=O)n(C)c3n2)cc1` [Example 80, 6-(2,6-Dichlorophenyl)-2-[4-(2-diethylaminoethoxy)-phenylamino]-8-methyl-8H-pyrido[2,3-d]pyrimidin-7-one], the “life span of animals infected with transplanted tumors” value in test [9] is given as “increased the life span”.
As to `COC(=O)c1ccc(Cn2c(=O)c(-c3c(Cl)cccc3Cl)cc3cnc(N)nc32)cc1` [Example 110, 4-[2-Amino-6-(2,6-dichlorophenyl)-7-oxo-7H-pyrido[2,3-d]pyrimidin-8-yl-methyl]-benzoic acid methyl ester], the IC50 in test [3] (read-out: FGFr-TK IC50) was 20300 nM; in test [5], 17200 nM. The inhibition (usually the change of the read-out against control, counted positive when it falls) at 50 µM turned out to be 25% in [4] (read-out: PDGFr-TK % Inhibition at 50 µM) and 64% in test [2].
`Nc1ncc2cc(-c3c(Cl)cccc3Cl)c(=O)n(Cc3c(Cl)cccc3Cl)c2n1` [Example 111, 2-Amino-8-(2,6-dichlorobenzyl)-6-(2,6-dichlorophenyl)-8H-pyrido[2,3-d]pyrimidin-7-one]: the IC50 in test [3] (read-out: FGFr-TK IC50) worked out at 1500 nM; in test [4], 3150 nM; in test [2], 1400 nM; in [5], 41 nM.
Take `COc1ccc(Cn2c(=O)c(-c3c(Cl)cccc3Cl)cc3cnc(N)nc32)cc1` [Example 112, 2-Amino-6-(2,6-dichlorophenyl)-8-(4-methoxyhenzyl)-8H-pyrino[2,3-d]pyrimidin-7-one]: the IC50 in test [3] (read-out: FGFr-TK IC50) came to 9100 nM; in [4] it was 11200 nM; in test [5] it was 1160 nM. Besides, in test [2], the inhibition at 50 µM worked out at 19%.
Consider `Nc1ncc2cc(-c3c(Cl)cccc3Cl)c(=O)n(CCCc3ccccc3)c2n1` [Example 114, 2-Amino-6-(2,6-dichlorophenyl)-8-(3-phenylpropyl)-8H-pyrido[2,3-d]pyrimidin-7-one], for which the IC50 in [3] (read-out: FGFr-TK IC50) is 3310 nM; in test [4], 5170 nM; in [2], 3200 nM; in test [5] it was 1090 nM.
The like results for `CCn1c(=O)c(-c2ccccc2)cc2cnc(Nc3ccccc3)nc21` [Example 116, 8-Ethyl-6-phenyl-2-phenylamino-8H-pyrido[2,3-d]-pyrimidin-7-one] were, in that order, 1960 nM, 152 nM, 180 nM and 1380 nM.
